Test results reported in PMC5920042, “KH176 Safeguards Mitochondrial Diseased Cells from Redox Stress-Induced Cell Death by Interacting with the Thioredoxin System/Peroxiredoxin Enzyme Machinery” (Scientific Reports, 2018).
Values joined by “and” are separate entries in the source; they are usually repeats but may differ in a detail not shown here. Equal entries are not always repeated.

How the values were obtained:
P4 cell line [1] = experiment: Redox Stress Survival assay (BSO-induced cell death, Calcein AM viability); type: cell-based, human
Experimental: Cells were seeded at a density of 4 × 10^3 cells/well into 96-wells black plates and incubated for 24 h. To induce redox stress, semi-logarithmic dilutions of buthionine sulphoximine (BSO, #B2515, Sigma Aldrich) up to 100 µM were added to the cells in culture medium and incubated for 24 h. Cell viability was assessed by quantification of cellular conversion of Calcein AM into fluorescent Calcein. Briefly, after having discarded the BSO containing medium, cells were washed once with M199 without phenol red and loaded with 2 µM Calcein AM (#65-0853-39, Affimetrix eBioscience) in M199 without phenol red for 25 min. At the end of the incubation period, the excess of the dye was washed with M199 without phenol red and Calcein fluorescence was measured with a scanning microplate reader (BMG FLUOstar Omega; Ex. 480 nm, Em. 520 nm). For compound screening and target identification measurements cells were treated with 200 µM BSO alone or in co-incubation with semi-logarithmic dilutions of the test compound. Additionally, where indicated, increasing doses of Auranofin (AFN, #BML-EI206-0100, Enzo) or Aurothioglucose (ATG, #A0606, Sigma Aldrich) were co-incubated with BSO and the test compound. In all cases, cell viability was assessed 24 h after the treatment.

P4 cell line [2] = experiment: Radical-Scavenging Capacity assay (CM-H2DCFDA, H2O2 or KO2); type: cell-based, human; details: P4 cells, 100 µM H2O2 or 1 mM KO2 (text: KOH), 3 µM compound
Experimental: Cells were seeded at a density of 4 × 10^3 cells/well into 96-wells black plates. After 24 h the cells were loaded with 5 µM CM-H2DCFDA in M199 without phenol red for 20 min. The dye excess was washed with M199 without phenol red and immediately after, cells were treated acutely with different concentrations of the test compounds in M199 without phenol red. To generate radicals, 100 µM H2O2 or 1 mM KO2 were injected to the compound-treated cells and CM-DCF fluorescence was measured every 2 min for 70 cycles on a scanning microplate reader (BMG FLUOstar Omega; Ex. 480 nm, Em. 520 nm). The area under the generated curves was calculated using the Origin 6.1 software (OriginLab).

[3] = test system: primary human skin fibroblasts; experiment: Cellular superoxide detection by HEt oxidation; type: cell-based; details: basal, 24 h compound; read-out: EC50 decrease of basal cellular superoxide levels (HEt)
Experimental: The cells were seeded at a density of 3 × 10^3 cells/well into 96-wells black plates. After 24 h, the cells were incubated with different amounts of KH176(m) for 24 h. For the cellular superoxide measurements cells were then washed with M199 without phenol red and incubated with HEt (#D11347, ThermoFisher) in this same medium for 10 minutes. […] Total cellular fluorescence per well was normalized on the incubation with the probe but without compound (vehicle set as 100%). Experiments were performed at least three times with 3 wells per experiment.

human Prdx2 = molecular target: T1, human Prdx2 (Homo sapiens, UniProt P32119); experiment: Surface Plasmon Resonance binding; details: immobilized Prdx2, SPR
T1 construct: purchased Novus Biological NBC1-25855
T1 sequence (P32119 1-198): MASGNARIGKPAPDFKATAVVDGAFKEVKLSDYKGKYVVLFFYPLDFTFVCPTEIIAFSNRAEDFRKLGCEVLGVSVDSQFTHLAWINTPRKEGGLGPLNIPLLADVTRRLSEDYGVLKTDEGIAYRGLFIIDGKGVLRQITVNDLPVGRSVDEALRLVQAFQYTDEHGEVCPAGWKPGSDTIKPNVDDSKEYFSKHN
Experimental: Prior to protein immobilization all proteins were dialyzed against HBS-E (10 mM Hepes, 150 mM NaCl, 3 mM EDTA) buffer that was previously filtered through a 0.45 µM membrane using dialyze slide according to the manufacturer instruction. Human recombinant proteins peroxiredoxin 2 (Novus Biological NBC1-25855) and CCDC101 (Abcam Ab124547) were immobilized on CM5 (carboxymethylated dextran covalently attached to a gold surface) using the amine coupling method according to manufacturer’s recommendation (Biacore, GE Healthcare). Briefly the CM5 surface was activated with the mixture of EDC/NHS. Recombinant proteins at dilution 1 µg/ml in a corresponding buffer i.e. Peroxiredoxin 2 and CCDC101 in sodium acetate buffer 100 mM (pH 4.9). The control channel was activated with EDC/NHS. All channels were thereafter saturated with 0.1 M ethanolamine solution. KH176 andKH176m were solubilized in HBSS at stock solution 1 mM. They were thereafter further diluted in HBSS to final concentrations 0.31e-6M, 0.62e-6M, 1.25e-6M, 2.5e-6M and 5.0e-6M and injected over the flow cells at a flow rate equal to […] for 2 min, followed by a dissociation phase of 4 min. The sensor chip surface was regenerated with 1 mM HCl. The specific binding profiles were obtained after subtracting the response signal from the control empty channel and from blank-buffer injection. The specific binding was calculated using Biaeval 3 software (Biacore, GE Healthcare) with the postulate of 1:1 ligand/analyte interaction. Based on the Chi^2 value in regard to the Rmax (less than 10%) and the difference interval ±2.5 RU theoretic fitting compared to experimental results, best fitting algorithm between Langmuir or drifting base line was applied.

[4] = 28-day repeat oral dose toxicity study, toxicokinetics; type: in vivo, Sprague Dawley rats; details: rat
Experimental: Pharmacokinetics and toxicokinetics measurements were performed by the commercial Contract Research Organizations Sai Life Sciences and WuXi AppTec, respectively, according to their standard protocols and in accordance with relevant guidelines and regulations. C57 BL/6 mice, Sprague Dawley rats, and Beagle dogs were studied.

[5] = KH176 25 mg/kg/dose BID oral, F, Day 1, plasma
[6] = KH176 25 mg/kg/dose BID oral, F, Day 28, plasma
[7] = KH176 25 mg/kg/dose BID oral, M, Day 1, plasma
[8] = KH176 25 mg/kg/dose BID oral, M, Day 28, plasma
[9] = KH176 75 mg/kg/dose BID oral, F, Day 1, plasma
[10] = KH176 75 mg/kg/dose BID oral, F, Day 28, plasma
[11] = KH176 75 mg/kg/dose BID oral, M, Day 1, plasma
[12] = KH176 75 mg/kg/dose BID oral, M, Day 28, plasma
[13] = KH176 250 mg/kg/dose BID oral, F, Day 1, plasma
[14] = KH176 250 mg/kg/dose BID oral, F, Day 28, plasma
[15] = KH176 250 mg/kg/dose BID oral, M, Day 1, plasma
[16] = KH176 250 mg/kg/dose BID oral, M, Day 28, plasma

## CC1=C(C)C(=O)C(CC[C@](C)(O)C(=O)N[C@@H]2CCCNC2)=C(C)C1=O [KH176m]
P4 cell line [1]; P4 cells, 200 µM BSO, 24 h
  EC50: 38 nM and 38.7 nM
P4 cell line [1]; increasing BSO 24 h, 1 µM compound
  Viability of patient cells under BSO: fully protected
P4 cell line [2]
  Reduction of H2O2-induced radicals and O2.- (CM-H2DCFDA oxidation): able to reduce the levels of both radicals
[3]
  EC50: 1700 nM
Human Prdx2; 0.31-5.0 µM
  Binding to Prdx2: dose-dependent binding
Human Prdx2; read-out: Affinity (Kd), Langmuir one site model
  Kd: 305 nM
[4]; KH176 25 mg/kg/dose BID oral, F, Day 1
  AUC0–24 h Ratio KH176m/KH176: 0.091
[4]; [5]
  AUC0–24 h: 1140 ng·h/mL
  Cmax: 85.9 ng/mL
  T1/2: 4.5 h
[4]; KH176 25 mg/kg/dose BID oral, F, Day 28
  AUC0–24 h Ratio KH176m/KH176: 0.074
[4]; [6]
  AUC0–24 h: 1410 ng·h/mL
  Cmax: 123 ng/mL
  T1/2: 6.2 h
[4]; KH176 25 mg/kg/dose BID oral, M, Day 1
  AUC0–24 h Ratio KH176m/KH176: 0.075
[4]; [7]
  AUC0–24 h: 792 ng·h/mL
  Cmax: 92.7 ng/mL
  T1/2: 2.3 h
[4]; KH176 25 mg/kg/dose BID oral, M, Day 28
  AUC0–24 h Ratio KH176m/KH176: 0.064
[4]; [8]
  AUC0–24 h: 993 ng·h/mL
  Cmax: 126 ng/mL
  T1/2: 13.3 h
[4]; KH176 75 mg/kg/dose BID oral, F, Day 1
  AUC0–24 h Ratio KH176m/KH176: 0.073
[4]; [9]
  AUC0–24 h: 3090 ng·h/mL
  Cmax: 203 ng/mL
  T1/2: 30.9 h
[4]; KH176 75 mg/kg/dose BID oral, F, Day 28
  AUC0–24 h Ratio KH176m/KH176: 0.067
[4]; [10]
  AUC0–24 h: 5120 ng·h/mL
  Cmax: 305 ng/mL
  T1/2: 12.9 h
[4]; KH176 75 mg/kg/dose BID oral, M, Day 1
  AUC0–24 h Ratio KH176m/KH176: 0.080
[4]; [11]
  AUC0–24 h: 2640 ng·h/mL
  Cmax: 187 ng/mL
  T1/2: 3.5 h
[4]; KH176 75 mg/kg/dose BID oral, M, Day 28
  AUC0–24 h Ratio KH176m/KH176: 0.067
[4]; [12]
  AUC0–24 h: 3100 ng·h/mL
  Cmax: 265 ng/mL
[4]; KH176 250 mg/kg/dose BID oral, F, Day 1
  AUC0–24 h Ratio KH176m/KH176: 0.073
[4]; [13]
  AUC0–24 h: 7630 ng·h/mL
  Cmax: 415 ng/mL
[4]; KH176 250 mg/kg/dose BID oral, F, Day 28
  AUC0–24 h Ratio KH176m/KH176: 0.071
[4]; [14]
  AUC0–24 h: 17300 ng·h/mL
  Cmax: 913 ng/mL
[4]; KH176 250 mg/kg/dose BID oral, M, Day 1
  AUC0–24 h Ratio KH176m/KH176: 0.055
[4]; [15]
  AUC0–24 h: 5170 ng·h/mL
  Cmax: 312 ng/mL
  T1/2: 104.4 h
[4]; KH176 250 mg/kg/dose BID oral, M, Day 28
  AUC0–24 h Ratio KH176m/KH176: 0.066
[4]; [16]
  AUC0–24 h: 10400 ng·h/mL
  Cmax: 777 ng/mL
  T1/2: 6.5 h
